The kinase profiling compilation of Christmann-Franck et al. (2016)

Legend:
Assay in all cases: radiometric filter-binding kinase assay, Kinase HotSpot
Conditions in all cases: compound 0.5 µM; ATP 10 µM
ABL2 (human) = ABL2 (human) (UniProt P42684)
ACVRL1 (human) = ACVRL1 (human) (UniProt P37023)
AKT2 (human) = AKT2 (human) (UniProt P31751)
BTK (human) = BTK (human) (UniProt Q06187)
CAMK1 (human) = CAMK1 (human) (UniProt Q14012)
CAMK2A (human) = CAMK2A (human) (UniProt Q9UQM7)
CAMK4 (human) = CAMK4 (human) (UniProt Q16566)
Sequence of CAMK4 (human) (Q16566 whole entry, looked up): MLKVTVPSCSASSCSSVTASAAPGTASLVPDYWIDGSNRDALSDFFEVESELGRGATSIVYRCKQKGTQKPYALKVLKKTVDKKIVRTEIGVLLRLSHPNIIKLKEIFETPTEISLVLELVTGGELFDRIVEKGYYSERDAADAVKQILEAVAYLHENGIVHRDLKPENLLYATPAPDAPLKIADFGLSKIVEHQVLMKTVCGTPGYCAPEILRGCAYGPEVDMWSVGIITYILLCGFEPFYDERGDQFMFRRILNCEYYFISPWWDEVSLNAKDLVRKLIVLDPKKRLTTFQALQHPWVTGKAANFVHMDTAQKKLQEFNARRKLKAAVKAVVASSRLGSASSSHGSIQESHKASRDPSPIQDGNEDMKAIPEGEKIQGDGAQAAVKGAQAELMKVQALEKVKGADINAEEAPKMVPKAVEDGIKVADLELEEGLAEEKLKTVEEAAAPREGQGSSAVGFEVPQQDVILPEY

CDK1 CCNA2 (human) = CDK1 CCNA2 (human) (UniProt P06493+P20248)
CDK2 CCNA2 (human) = CDK2 CCNA2 (human) (UniProt P24941+P20248)
Sequence of CDK2 CCNA2 (human) (P20248 whole entry, looked up, other chains not shown): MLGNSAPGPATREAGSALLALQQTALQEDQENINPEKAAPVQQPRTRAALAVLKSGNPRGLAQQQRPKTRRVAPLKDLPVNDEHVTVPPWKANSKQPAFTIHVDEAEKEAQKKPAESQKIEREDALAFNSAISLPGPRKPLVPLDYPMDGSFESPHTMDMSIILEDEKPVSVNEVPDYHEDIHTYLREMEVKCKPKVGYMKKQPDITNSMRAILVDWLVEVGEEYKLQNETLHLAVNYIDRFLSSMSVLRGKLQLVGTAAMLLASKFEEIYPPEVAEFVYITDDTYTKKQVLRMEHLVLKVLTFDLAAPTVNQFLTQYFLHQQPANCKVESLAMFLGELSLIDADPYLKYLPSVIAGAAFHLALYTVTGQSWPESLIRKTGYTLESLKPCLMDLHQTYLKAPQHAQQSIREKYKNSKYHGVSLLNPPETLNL

CDK2 CCNE1 (human) = CDK2 CCNE1 (human) (UniProt P24941+P24864)
CDK7 CCNH MNAT1 (human) = CDK7 CCNH MNAT1 (human) (UniProt P50613+P51948+P51946)
CHUK (human) = CHUK (human) (UniProt O15111)
CSNK1G1 (human) = CSNK1G1 (human) (UniProt Q9HCP0)
DYRK3 (human) = DYRK3 (human) (UniProt O43781)
EPHA5 (human) = EPHA5 (human) (UniProt P54756)
GRK4 (human) = GRK4 (human) (UniProt P32298)
GRK5 (human) = GRK5 (human) (UniProt P34947)
HIPK2 (human) = HIPK2 (human) (UniProt Q9H2X6)
IGF1R (human) = IGF1R (human) (UniProt P08069)
Sequence of IGF1R (human) (P08069 whole entry, looked up): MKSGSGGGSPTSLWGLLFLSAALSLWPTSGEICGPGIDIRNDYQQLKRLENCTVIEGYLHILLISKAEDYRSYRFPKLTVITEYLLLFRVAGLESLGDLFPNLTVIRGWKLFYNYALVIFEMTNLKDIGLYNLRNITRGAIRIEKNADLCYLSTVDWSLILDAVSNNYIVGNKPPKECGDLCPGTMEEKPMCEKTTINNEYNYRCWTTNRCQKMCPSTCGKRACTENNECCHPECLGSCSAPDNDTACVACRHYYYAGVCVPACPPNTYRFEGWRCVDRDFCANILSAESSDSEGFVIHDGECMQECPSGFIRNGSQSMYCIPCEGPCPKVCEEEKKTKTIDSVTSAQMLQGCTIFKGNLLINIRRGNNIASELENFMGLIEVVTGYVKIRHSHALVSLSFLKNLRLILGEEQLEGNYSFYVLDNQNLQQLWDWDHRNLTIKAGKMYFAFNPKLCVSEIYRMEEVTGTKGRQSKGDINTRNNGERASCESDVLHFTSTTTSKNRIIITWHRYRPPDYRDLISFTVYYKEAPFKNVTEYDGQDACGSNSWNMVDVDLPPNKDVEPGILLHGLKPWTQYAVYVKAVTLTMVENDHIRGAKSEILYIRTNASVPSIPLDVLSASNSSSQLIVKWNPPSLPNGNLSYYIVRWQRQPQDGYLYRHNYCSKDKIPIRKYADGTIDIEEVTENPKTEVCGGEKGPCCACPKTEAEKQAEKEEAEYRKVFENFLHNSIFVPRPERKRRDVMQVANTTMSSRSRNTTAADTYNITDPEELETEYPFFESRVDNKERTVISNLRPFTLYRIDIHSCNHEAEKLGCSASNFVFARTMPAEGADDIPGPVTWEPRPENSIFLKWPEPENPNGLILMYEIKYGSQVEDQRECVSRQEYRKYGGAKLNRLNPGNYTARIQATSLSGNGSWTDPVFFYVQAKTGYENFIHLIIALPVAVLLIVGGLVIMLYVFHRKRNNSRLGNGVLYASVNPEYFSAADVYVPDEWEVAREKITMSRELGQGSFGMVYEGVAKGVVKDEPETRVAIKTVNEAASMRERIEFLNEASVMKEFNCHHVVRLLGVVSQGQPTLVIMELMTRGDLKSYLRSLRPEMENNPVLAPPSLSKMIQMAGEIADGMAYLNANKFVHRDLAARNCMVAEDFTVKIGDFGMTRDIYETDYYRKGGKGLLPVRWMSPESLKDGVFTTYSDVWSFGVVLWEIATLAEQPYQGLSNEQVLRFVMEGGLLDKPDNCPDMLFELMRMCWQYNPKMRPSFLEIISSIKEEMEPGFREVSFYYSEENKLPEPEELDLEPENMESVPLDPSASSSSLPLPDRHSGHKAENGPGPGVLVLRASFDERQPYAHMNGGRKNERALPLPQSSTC

KIT (human) = KIT (human) (UniProt P10721)
Sequence of KIT (human) (P10721 whole entry, looked up): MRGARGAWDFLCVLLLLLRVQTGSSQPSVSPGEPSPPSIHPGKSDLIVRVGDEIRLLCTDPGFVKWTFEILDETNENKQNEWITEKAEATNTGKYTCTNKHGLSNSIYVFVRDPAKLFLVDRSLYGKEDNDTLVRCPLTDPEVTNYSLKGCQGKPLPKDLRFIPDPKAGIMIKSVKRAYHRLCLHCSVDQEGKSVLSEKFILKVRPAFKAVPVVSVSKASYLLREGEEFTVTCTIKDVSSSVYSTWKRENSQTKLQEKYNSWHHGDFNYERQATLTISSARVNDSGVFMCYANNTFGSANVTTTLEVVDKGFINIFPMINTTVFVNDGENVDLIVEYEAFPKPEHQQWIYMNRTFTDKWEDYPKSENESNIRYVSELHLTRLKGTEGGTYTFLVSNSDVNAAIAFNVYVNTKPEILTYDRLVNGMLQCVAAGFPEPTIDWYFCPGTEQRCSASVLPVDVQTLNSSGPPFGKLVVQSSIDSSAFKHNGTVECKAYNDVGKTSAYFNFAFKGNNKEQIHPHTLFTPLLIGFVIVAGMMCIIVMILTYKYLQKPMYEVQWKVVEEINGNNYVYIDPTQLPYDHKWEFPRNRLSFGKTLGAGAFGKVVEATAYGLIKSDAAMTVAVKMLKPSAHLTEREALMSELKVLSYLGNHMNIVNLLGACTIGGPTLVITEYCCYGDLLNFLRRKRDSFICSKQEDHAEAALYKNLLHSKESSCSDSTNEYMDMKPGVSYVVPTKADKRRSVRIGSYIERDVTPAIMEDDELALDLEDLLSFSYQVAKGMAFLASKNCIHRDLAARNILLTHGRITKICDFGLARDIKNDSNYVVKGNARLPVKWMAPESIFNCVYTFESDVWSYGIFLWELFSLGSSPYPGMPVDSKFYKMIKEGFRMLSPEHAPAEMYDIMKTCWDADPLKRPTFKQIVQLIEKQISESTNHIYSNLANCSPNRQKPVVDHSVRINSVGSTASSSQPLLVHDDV

MAP3K10 (human) = MAP3K10 (human) (UniProt Q02779)
Sequence of MAP3K10 (human) (Q02779 whole entry, looked up): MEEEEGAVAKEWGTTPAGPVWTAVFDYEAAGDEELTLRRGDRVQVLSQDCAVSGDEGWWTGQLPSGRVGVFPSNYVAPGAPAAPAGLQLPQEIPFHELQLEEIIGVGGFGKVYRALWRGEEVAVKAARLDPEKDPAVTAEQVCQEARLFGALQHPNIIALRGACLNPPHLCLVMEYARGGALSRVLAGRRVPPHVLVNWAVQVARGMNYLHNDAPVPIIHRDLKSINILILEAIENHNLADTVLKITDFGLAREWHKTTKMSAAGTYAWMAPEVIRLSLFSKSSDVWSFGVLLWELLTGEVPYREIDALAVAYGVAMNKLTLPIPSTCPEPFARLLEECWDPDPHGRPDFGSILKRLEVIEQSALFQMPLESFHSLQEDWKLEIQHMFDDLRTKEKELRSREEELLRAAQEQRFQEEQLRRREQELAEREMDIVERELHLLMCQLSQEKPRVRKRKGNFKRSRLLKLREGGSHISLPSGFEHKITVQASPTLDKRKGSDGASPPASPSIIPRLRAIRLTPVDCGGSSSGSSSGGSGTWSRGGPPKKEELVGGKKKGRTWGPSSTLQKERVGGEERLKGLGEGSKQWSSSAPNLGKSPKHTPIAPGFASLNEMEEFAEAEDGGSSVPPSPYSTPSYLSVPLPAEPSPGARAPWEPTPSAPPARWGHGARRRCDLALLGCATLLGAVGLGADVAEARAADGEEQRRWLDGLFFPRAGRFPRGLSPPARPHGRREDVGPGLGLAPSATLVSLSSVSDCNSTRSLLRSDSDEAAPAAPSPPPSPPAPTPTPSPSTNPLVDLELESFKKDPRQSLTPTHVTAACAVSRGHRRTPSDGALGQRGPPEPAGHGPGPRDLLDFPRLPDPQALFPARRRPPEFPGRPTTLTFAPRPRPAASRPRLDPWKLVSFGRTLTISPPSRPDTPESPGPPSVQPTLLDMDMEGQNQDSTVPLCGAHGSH

MAP4K2 (human) = MAP4K2 (human) (UniProt Q12851)
MAPK1 (human) = MAPK1 (human) (UniProt P28482)
MAPK10 (human) = MAPK10 (human) (UniProt P53779)
MAPKAPK5 (human) = MAPKAPK5 (human) (UniProt Q8IW41)
MELK (human) = MELK (human) (UniProt Q14680)
MINK1 (human) = MINK1 (human) (UniProt Q8N4C8)
MKNK2 (human) = MKNK2 (human) (UniProt Q9HBH9)
Sequence of MKNK2 (human) (Q9HBH9 whole entry, looked up): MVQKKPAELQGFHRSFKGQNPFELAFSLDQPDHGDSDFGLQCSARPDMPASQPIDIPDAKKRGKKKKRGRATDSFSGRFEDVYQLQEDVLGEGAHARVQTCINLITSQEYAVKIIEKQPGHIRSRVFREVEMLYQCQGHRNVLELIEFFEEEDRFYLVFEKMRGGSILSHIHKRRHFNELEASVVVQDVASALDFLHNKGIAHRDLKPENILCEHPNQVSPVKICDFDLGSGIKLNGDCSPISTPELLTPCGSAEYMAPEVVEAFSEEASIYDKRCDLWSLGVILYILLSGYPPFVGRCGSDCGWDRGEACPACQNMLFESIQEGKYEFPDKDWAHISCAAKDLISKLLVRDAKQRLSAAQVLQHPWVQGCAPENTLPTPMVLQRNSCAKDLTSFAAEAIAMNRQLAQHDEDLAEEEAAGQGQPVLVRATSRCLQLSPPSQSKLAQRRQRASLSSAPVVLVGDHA

NEK3 (human) = NEK3 (human) (UniProt P51956)
NEK6 (human) = NEK6 (human) (UniProt Q9HC98)
Sequence of NEK6 (human) (Q9HC98 whole entry, looked up): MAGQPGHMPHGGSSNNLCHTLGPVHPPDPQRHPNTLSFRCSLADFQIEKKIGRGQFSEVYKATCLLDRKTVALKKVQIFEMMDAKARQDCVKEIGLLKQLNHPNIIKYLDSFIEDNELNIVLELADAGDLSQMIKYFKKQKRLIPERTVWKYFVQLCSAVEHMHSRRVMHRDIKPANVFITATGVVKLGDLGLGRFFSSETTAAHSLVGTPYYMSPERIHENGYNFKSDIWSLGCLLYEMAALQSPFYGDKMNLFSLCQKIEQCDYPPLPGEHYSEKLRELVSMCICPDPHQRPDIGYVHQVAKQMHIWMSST

NTRK2 (human) = NTRK2 (human) (UniProt Q16620)
PAK6 (human) = PAK6 (human) (UniProt Q9NQU5)
PDPK1 (human) = PDPK1 (human) (UniProt O15530)
PRKCB2 (human) = PRKCB2 (human) (UniProt P05771)
PRKCI (human) = PRKCI (human) (UniProt P41743)
PRKD2 (human) = PRKD2 (human) (UniProt Q9BZL6)
PRKG2 (human) = PRKG2 (human) (UniProt Q13237)
SRPK2 (human) = SRPK2 (human) (UniProt P78362)
SRPK3 (human) = SRPK3 (human) (UniProt Q9UPE1)
STK33 (human) = STK33 (human) (UniProt Q9BYT3)
TGFBR1 (human) = TGFBR1 (human) (UniProt P36897)
TSSK1B (human) = TSSK1B (human) (UniProt Q9BXA7)

`CC(C)(C)c1nc2c3ccc(F)cc3c3c(=O)[nH]ccc3c2[nH]1` gave a residual activity (ABL2 (human)) of 90.3%, a residual activity (ACVRL1 (human)) of 105% and a residual activity (AKT2 (human)) of 89.8%. It also gave a residual activity (BTK (human)) of 80.5%, a residual activity (CAMK1 (human)) of 79.3% and a residual activity (CAMK2A (human)) of 35.1%. For the same molecule, the residual activity (CAMK4 (human)) was 81.8%, the residual activity (CDK1 CCNA2 (human)) was 89.4% and the residual activity (CDK2 CCNA2 (human)) was 86.2%. For the same molecule, the residual activity (CDK2 CCNE1 (human)) was 87.5%, the residual activity (CDK7 CCNH MNAT1 (human)) was 92.8% and the residual activity (CHUK (human)) was 102%. The residual activity (CSNK1G1 (human)) was 96.5%, the residual activity (DYRK3 (human)) was 105% and the residual activity (EPHA5 (human)) was 100%. It also gave a residual activity (GRK4 (human)) of 74.2%, a residual activity (GRK5 (human)) of 72.9% and a residual activity (HIPK2 (human)) of 98.7%. For the same molecule, the residual activity (IGF1R (human)) was 91.3%, the residual activity (KIT (human)) was 96.1% and the residual activity (MAP3K10 (human)) was 89.7%. The residual activity (MAP4K2 (human)) was 66.2%, the residual activity (MAPK1 (human)) was 96.1% and the residual activity (MAPK10 (human)) was 107%. For the same molecule, the residual activity (MAPKAPK5 (human)) was 88.1%, the residual activity (MELK (human)) was 5.23% and the residual activity (MINK1 (human)) was 52%. The residual activity (MKNK2 (human)) was 62%, the residual activity (NEK3 (human)) was 74.4% and the residual activity (NEK6 (human)) was 82.5%. It also gave a residual activity (NTRK2 (human)) of 16.1%, a residual activity (PAK6 (human)) of 90.9% and a residual activity (PDPK1 (human)) of 27%. For the same molecule, the residual activity (PRKCB2 (human)) was 90.6%, the residual activity (PRKCI (human)) was 96% and the residual activity (PRKD2 (human)) was 6.13%. The residual activity (PRKG2 (human)) was 14.3%, the residual activity (SRPK2 (human)) was 70.5% and the residual activity (SRPK3 (human)) was 58.6%. For the same molecule, the residual activity (STK33 (human)) was 53.8%, the residual activity (TGFBR1 (human)) was 102% and the residual activity (TSSK1B (human)) was 37.3%.
